These results are taken from PMC12321279, “Novel 4,5‐Dihydrothiazole‐Phenylpiperazine Derivatives: Synthesis, Docking Studies and Pharmacological Evaluation as Serotonergic Agents” (Chemmedchem, 2025).

Where two headings read alike, the source gives them in different places.

The target in one assay is T1, 5‐HT1A receptor (Rattus norvegicus, UniProt P19327).
T1 construct: 80 μg of hippocampal membrane suspension (the 5‐HT1A assay); from tissue; host or cells: rat (Sprague-Dawley) hippocampus membranes
T1 sequence (P19327 1-422): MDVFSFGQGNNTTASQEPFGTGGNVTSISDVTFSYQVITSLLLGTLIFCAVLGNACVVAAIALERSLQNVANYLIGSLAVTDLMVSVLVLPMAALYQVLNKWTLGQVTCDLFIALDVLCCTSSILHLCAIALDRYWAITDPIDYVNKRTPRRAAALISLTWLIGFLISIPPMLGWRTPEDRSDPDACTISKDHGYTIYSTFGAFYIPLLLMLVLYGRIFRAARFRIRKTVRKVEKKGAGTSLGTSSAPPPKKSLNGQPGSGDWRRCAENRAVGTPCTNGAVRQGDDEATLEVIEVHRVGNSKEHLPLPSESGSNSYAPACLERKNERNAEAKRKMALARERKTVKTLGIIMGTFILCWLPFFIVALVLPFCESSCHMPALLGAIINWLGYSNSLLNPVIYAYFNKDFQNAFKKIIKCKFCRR
As to the kind of experiment: 5‐HT1A receptor activation in the [35S]GTP‐γ‐S assay (hippocampal membranes). It is filed as biochemical. Particulars: [35S]GTPγS; for Emax: read-out: Emax (%) ± SEM, 5‐HT1A receptor G‐protein stimulation; for agonist activity for the 5‐HT1A receptor (classification in words): efficacy compared with 8‐OH‐DPAT. The protocol:
Seven compound concentrations equally spaced on a log scale (10–4 M to 10–10 M) were incubated in duplicate with hippocampal membrane preparations (5μg per well) in assay buffer (50 mM Tris‐HCl, pH = 7.4, 1 mM EGTA, 3 mM MgCl2, 100 mM NaCl, and 30 μM GDP) and 0.08 nM [^35S]GTP‐γ‐S (specific activity: 1250 Ci mmole^−1, Revvity). Nonspecific binding was determined with 10μM of unlabeled GTP‐γ‐S. The final DMSO concentration in the assay was 5%. The reaction mixture was incubated for 90 min. at 30 °C on an orbital shaker set at 250 rpm. Next, the reaction mixture was deposited under vacuum with the FilterMate Harvester (Revvity, USA) onto Unifilter GF/C Plates (Revvity, MA, USA) presoaked with wash buffer (50 mM Tris‐HCl, pH = 7.4). The wells were then rapidly washed with 2 mL of wash buffer. Filter plates were dried overnight at room temperature. Once completely dry, 35 μl of MicroScint PS (Revvity, MA, USA) scintillation fluid was added to each well. Radioactivity was counted in a MicroBeta2 LumiJet scintillation counter (Revvity, MA, USA). Data were analyzed with GraphPad Prism 5.0 software (GraphPad Software, San Diego California USA, www.graphpad.com). The curves were fitted with three‐parameter non‐linear regression model.
(Binding of GTPγS marks nucleotide exchange on a G protein.)

In another assay the target is 5‐HT2A receptor (Rattus norvegicus, UniProt P14842). Put plainly: 5‐HT2A competition binding assay ([3H]ketanserin, frontal cortex membranes). Also on record: from tissue; host or cells: rat (Sprague-Dawley) frontal cortex membranes. Particulars: 1 nM [3H]ketanserin.
Another assay concerns the target T2, 5‐HT2C receptor (Rattus norvegicus, UniProt P08909).
T2 construct: 10 μM pargyline and 160μg of the frontal cortex membrane suspension; from tissue; host or cells: rat (Sprague-Dawley) frontal cortex membranes
T2 sequence (P08909 33-460): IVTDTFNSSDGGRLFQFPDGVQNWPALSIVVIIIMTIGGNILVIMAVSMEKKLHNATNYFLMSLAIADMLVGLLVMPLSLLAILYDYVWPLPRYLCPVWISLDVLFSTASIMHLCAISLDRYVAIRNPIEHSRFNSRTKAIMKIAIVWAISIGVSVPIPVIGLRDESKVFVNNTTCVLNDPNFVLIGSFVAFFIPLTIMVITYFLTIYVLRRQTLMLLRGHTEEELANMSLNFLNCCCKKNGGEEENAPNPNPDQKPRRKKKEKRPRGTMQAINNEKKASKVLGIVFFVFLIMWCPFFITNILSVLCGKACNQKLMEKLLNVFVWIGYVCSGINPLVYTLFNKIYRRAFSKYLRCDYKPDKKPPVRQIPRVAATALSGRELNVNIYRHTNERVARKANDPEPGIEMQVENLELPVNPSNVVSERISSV
Put plainly: 5‐HT2C competition binding assay ([3H]mesulergine, frontal cortex membranes). Particulars: 5 nM [3H]mesulergine. The protocol: Sprague‐Dawley rats were sacrificed by isoflurane overdose. Brains were rapidly removed and placed on ice. Hippocampi (for the 5‐HT1A assay) and frontal cortices (for the 5‐HT2A and 5‐HT2C assays) were dissected on a Petri dish. The tissue from 10 rats was homogenized in 30 vol. homogenization buffer (50 mM Tris–HCl, […], 1 mM EDTA, 1 mM dithiothreitol) with a handheld Teflon‐glass homogenizer. The homogenate was centrifuged at 48,000 × g at 4 °C for 15 min. The pellet was suspended and homogenized in the homogenization buffer and incubated for 10 min. at 36 °C. The centrifugation and suspension steps were repeated twice. The final pellet was homogenized in 5 vol. 50 mM Tris–HCl, pH = 7.4 buffer and stored at −80 °C for no longer than 6 months. […] For the 5‐HT2C assay, compounds were incubated in duplicate with 5 nM [^3H]mesulergine (specific activity: 80.2 Ci mmol^−1, Revvity, MA, USA) for 60 min. at 36 °C in a 50 mM Tris‐HCl (pH 7.4) buffer, supplemented with 5 mM MgCl2, 140 mM NaCl, 1 mM DTT, 1 mM CaCl2, 10 μM pargyline and 160μg of the frontal cortex membrane suspension. Non‐specific binding was determined with 10μM serotonin. The final DMSO concentration in the assay was 5%. After incubation, the reaction mixture was deposited onto Unifilter GF/C plates (Revvity, MA, USA) presoaked in 0.4% PEI (or 0.4% PEI and 0.5% Triton X‐100 for the 5‐HT2C assay) for 1 h with the FilterMate‐96 Harvester (Revvity, MA, USA). Then, each well was washed with 2 mL of 50 mM Tris–HCl (pH 7.4) buffer to separate bound ligands from free and the plates were left to dry overnight. Then, 35μl of Microscint‐20 scintillation fluid (Revvity, MA, USA) was added to each filter well and left to equilibrate for 2h. Filter‐bound radioactivity was counted in a MicroBeta2 LumiJet scintillation counter (Revvity, MA, USA). Binding curves were fitted with one site non‐linear regression. Binding affinity (pKi and Ki) for each compound was calculated from the […] values with the Cheng‐Prusoff equation from two separate experiments.

The mark [1] stands for this setting: rat hippocampal membranes, 95% CI in brackets, read-out: EC50 (95% CI, μM), 5‐HT1A receptor G‐protein stimulation.
The mark [2] stands for this setting: rat hippocampal membranes, read-out: pEC50, 5‐HT1A receptor G‐protein stimulation (converted).
Setting [3] is: 95% CI in brackets, read-out: 5‐HT2A Ki (95% CI).
Where [4] appears, read: 95% CI in brackets, read-out: 5‐HT2C Ki (95% CI).
The mark [5] stands for this setting: read-out: 5‐HT2A pKi (converted).
[6] abbreviates: read-out: 5‐HT2C pKi (converted).

Chain of 5‐HT2A receptor (P14842 whole entry): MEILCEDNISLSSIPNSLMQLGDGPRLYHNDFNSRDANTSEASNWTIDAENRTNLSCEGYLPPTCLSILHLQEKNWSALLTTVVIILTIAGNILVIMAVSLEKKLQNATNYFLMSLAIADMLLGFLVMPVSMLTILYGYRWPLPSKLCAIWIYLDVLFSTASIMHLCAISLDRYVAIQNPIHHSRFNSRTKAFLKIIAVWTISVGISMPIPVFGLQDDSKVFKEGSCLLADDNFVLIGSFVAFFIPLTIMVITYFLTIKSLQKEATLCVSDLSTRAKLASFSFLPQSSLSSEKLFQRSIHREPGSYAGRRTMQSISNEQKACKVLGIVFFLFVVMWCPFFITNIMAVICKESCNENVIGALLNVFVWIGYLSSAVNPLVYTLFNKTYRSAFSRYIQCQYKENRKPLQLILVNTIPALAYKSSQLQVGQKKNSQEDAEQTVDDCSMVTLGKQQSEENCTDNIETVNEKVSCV

`O=C(NCCCN1CCN(c2ccccc2C2=NCCS2)CC1)c1ccccn1` [FG‐1, N‐(3‐(4‐(2‐(4,5‐dihydrothiazol‐2‐yl) phenyl) piperazin‐1‐yl) propyl) picolinamide]: the results for the EC50 on 5‐HT1A receptor (setting [1]) and at 5‐HT1A receptor (setting [2]) were 16.5 µM and 20 µM, respectively. Moreover, the maximum response (Emax) (in general, the maximal effect, on the per cent scale that the assay sets) on 5‐HT1A receptor (rat hippocampal membranes) is 138 ± 11.5%. For the same compound, the Ki at 5‐HT2A receptor (setting [3]) stood at 3.13 µM; on 5‐HT2C receptor (setting [4]), 6.86 µM.

Turning to `O=C(NCCCN1CCN(c2cccc(C3=NCCS3)c2)CC1)c1ccccn1` [FG‐2, N‐(3‐(4‐(3‐(4,5‐dihydrothiazol‐2‐yl) phenyl) piperazin‐1‐yl) propyl) picolinamide], the EC50 on 5‐HT1A receptor (setting [1]) was determined as 125 µM. Moreover, at 5‐HT1A receptor (rat hippocampal membranes), the Emax turned out to be 136 ± 10.2%. In addition, the Ki at 5‐HT2A receptor (setting [3]) is 2.9 µM; on 5‐HT2A receptor (setting [5]) it was 2.95 µM; on 5‐HT2C receptor (setting [4]) it was 0.816 µM; on 5‐HT2C receptor (setting [6]), 0.832 µM.

For the compound `O=C(NCCCN1CCN(c2ccccc2C2=NCCS2)CC1)c1ccncc1` [FG‐4, N‐(3‐(4‐(2‐(4,5‐dihydrothiazol‐2‐yl) phenyl) piperazin‐1‐yl) propyl) isonicotinamide], the Emax at 5‐HT1A receptor (rat hippocampal membranes) turned out to be 132 ± 14.9%. For the same compound, the EC50 at 5‐HT1A receptor (setting [2]) was 50.1 µM. The Ki at 5‐HT2A receptor (setting [3]) amounted to 4.7 µM; at 5‐HT2C receptor (setting [4]) it was 7.28 µM.

As for `O=C(NCCCN1CCN(c2cccc(C3=NCCS3)c2)CC1)c1ccncc1` [FG‐5, N‐(3‐(4‐(3‐(4,5‐dihydrothiazol‐2‐yl) phenyl) piperazin‐1‐yl) propyl) isonicotinamide], the EC50 on 5‐HT1A receptor (setting [1]) was found to be 18.2 µM. In addition, the Emax on 5‐HT1A receptor (rat hippocampal membranes) turned out to be 185 ± 17.6%. In addition, the Ki at 5‐HT2A receptor (setting [3]) came out at 4.43 µM; at 5‐HT2C receptor (setting [4]) it was 12.5 µM.

Consider `O=C(NCCCN1CCN(c2ccc(C3=NCCS3)cc2)CC1)c1ccncc1` [FG‐6, N‐(3‐(4‐(4‐(4,5‐dihydrothiazol‐2‐yl) phenyl) piperazin‐1‐yl) propyl) isonicotinamide], for which the EC50 on 5‐HT1A receptor (setting [1]) was 9.4 µM. Further, the maximum response (Emax) on 5‐HT1A receptor (rat hippocampal membranes) was found to be 184 ± 11%. The “agonist activity for the 5‐HT1A receptor (classification in words)” value (“agonist activity for the 5‐HT1A receptor” below) on 5‐HT1A receptor is reported as “full agonists”. Moreover, the Ki on 5‐HT2A receptor (setting [3]) is 4.6 µM; on 5‐HT2C receptor (setting [4]), 2.21 µM; at 5‐HT2C receptor (setting [6]), 2.24 µM.

In the case of `O=C1C2C3C=CC(C3)C2C(=O)N1OCCCN1CCN(c2ccccc2C2=NCCS2)CC1` (stereo not drawn) [FG‐7, 2‐(3‐(4‐(2‐(4,5‐dihydrothiazol‐2‐yl) phenyl) piperazin‐1‐yl) propoxy)‐3a,4,7,7a‐tetrahydro‐1 H‐4,7‐methanoisoindole‐1,3(2 H)‐dione], the EC50 at 5‐HT1A receptor (setting [1]) came out at 3.01 µM. The Emax at 5‐HT1A receptor (rat hippocampal membranes) was found to be 177 ± 3.3%. For the same compound, the “agonist activity for the 5‐HT1A receptor” value at 5‐HT1A receptor is recorded as “full agonists”. The results for the Ki at 5‐HT2A receptor (setting [3]) and at 5‐HT2C receptor (setting [4]) were 2.86 µM and 80.8 µM, respectively.

Regarding `O=C1C2C3C=CC(C3)C2C(=O)N1OCCCN1CCN(c2cccc(C3=NCCS3)c2)CC1` (stereo not drawn) [FG‐8, 2‐(3‐(4‐(3‐(4,5‐dihydrothiazol‐2‐yl) phenyl) piperazin‐1‐yl) propoxy)‐3a,4,7,7a‐tetrahydro‐1H‐4,7‐methanoisoindole‐1,3(2H)‐dione], the EC50 on 5‐HT1A receptor (setting [1]) came to 7.9 µM. Further, on 5‐HT1A receptor (rat hippocampal membranes), the Emax was determined as 184 ± 6.6%. The “agonist activity for the 5‐HT1A receptor” value on 5‐HT1A receptor was “full agonists”. The Ki at 5‐HT2A receptor (setting [3]) was 1.1 µM; on 5‐HT2A receptor (setting [5]), 1.15 µM; at 5‐HT2C receptor (setting [4]) it was 0.046 µM; on 5‐HT2C receptor (setting [6]) it was 0.0468 µM.

In the case of `O=C(NCCCN1CCN(c2ccc(C3=NCCS3)cc2)CC1)C1CC2C=CC1C2` (stereo not drawn) [FG‐18, Endo‐ N‐(3‐(4‐(4‐(4,5‐dihydrothiazol‐2‐yl)phenyl)piperazin‐1‐yl)propyl) bicyclo[2.2.1]hept‐5‐ene‐2‐carboxamide], the “Emax (%) ± SEM, 5‐HT1A receptor G‐protein stimulation” value on 5‐HT1A receptor (rat hippocampal membranes) is 144 ± 8.2%. In addition, the values for the EC50 on 5‐HT1A receptor (setting [1]) and on 5‐HT1A receptor (setting [2]) were 8.8 µM and 8.91 µM, respectively. In addition, the Ki on 5‐HT2A receptor (setting [3]) came to 2.73 µM; on 5‐HT2C receptor (setting [4]), 0.017 µM.
